Test results: US8153787B2 (priority 2005, dated 2012)
Values after ≈ are worked out from the molar mass of the structure shown. Like-named read-outs stand apart in the source and are kept apart here.

What was measured:
[1] = in vitro; settings: mouse
[2] = system: herpes simplex virus type 2 (HSV-2); experiment: microbe, parasite or virus in culture; type: cell-based; settings: Human alphaherpesvirus 2, HEL, read-out: EC50 HSV-2 (G strain)
[3] = in vitro; settings: African green monkey
[4] = system: Varicella-Zoster Virus (VZV); experiment: microbe, parasite or virus in culture; type: cell-based; settings: for EC50: Human alphaherpesvirus 3, HEL
[5] = system: Orf virus (NZ2); type: cell-based
[6] = system: Orf virus (NZ2); experiment: microbe, parasite or virus in culture; type: cell-based
[7] = system: Vaccinia virus (Lederle, Lister, W R and Copenhagen); type: cell-based
[8] = system: Vaccinia virus (Western Reserve) and recombinant viruses harboring the A314T, A684V or A314T+A684V mutations; type: cell-based
[9] = in vitro; settings: human
[10] = system: SiHa cells (HPV-16); experiment: Human cervical carcinoma (SiHa) xenografts in athymic nude mice; type: in vivo; settings: 5 weeks intratumoral treatment
Description: (§1) Adult animals were injected subcutaneously with 5×10^6 SiHa cells, a human cervical carcinoma cell line which harbors integrated human papillomavirus (HPV-16). Once the tumors were established (approximately after 1 week), the mice were divided in several groups, the tumor size for each mouse was determined, and treatment with placebo (PBS) or the test compounds was started. The test solutions were administered intratumorally at a volume of 50 μl. Mice were treated once a day, 5 times a week for a period of 5 weeks. Every week, the tumor size for each animal was measured with a caliper in two perpendicular dimensions and tumor size was calculated by multiplying the two measured diameters.
as §1, with “s.c.” for “subcutaneously”, “intratumorally (i.t.)” for “intratumorally”

[11] = system: HSB-2 cells; settings: human
[12] = system: Cowpox virus (Brighton); experiment: microbe, parasite or virus in culture; type: cell-based
[13] = system: herpes simplex virus type 1 (HSV-1); experiment: microbe, parasite or virus in culture; type: cell-based; settings: Human alphaherpesvirus 1, HEL, read-out: EC50 HSV-1 (Kos strain)
[14] = system: vaccinia virus (Lederle strain); experiment: microbe, parasite or virus in culture; type: cell-based; settings: Orthopoxvirus vaccinia, HEL
[15] = system: Herpes simplex virus-2 (G); type: cell-based
[16] = system: human cervical carcinoma xenografts (HeLa, CaSki cells); experiment: Human cervical carcinoma xenografts (HeLa, CaSki) in athymic nude mice, FIG. 12; type: in vivo; settings: 5 and 10 mg/mL doses, intratumoral
Description: as §1, with “FIGS. 12 A and B show the activity of (S)-HPMP-5-azacytosine compared to (S)-HPMPC against human papillomavirus in human cervical carcinoma xenografts in athymic nude mice. (A) Adult” for “Adult”, “HeLa” for “SiHa”, “diameters. […] Once the tumors were established (approximately after 1 week), the mice were divided in several groups, the tumor size for each mouse was determined, and treatment with placebo (PBS) or the test compounds was started. […] Every week, the tumor size for each animal was measured with a caliper in two perpendicular dimensions and tumor size was calculated by multiplying the two measured diameters.” for “diameters.”

[17] = system: primate polyomavirus (SV40); experiment: microbe, parasite or virus in culture; type: cell-based, simian polyomavirus SV40; settings: Polyomavirus sp., BSC-1, in Primates
[18] = system: Vaccinia virus; type: cell-based
[19] = system: Molluscum contagiosum virus (MCV) clinical isolates; experiment: microbe, parasite or virus in culture; type: cell-based; settings: Keratinocyte
[20] = system: murine polyomavirus; experiment: microbe, parasite or virus in culture; type: cell-based; settings: Alphapolyomavirus muris, UC1, UC1B
[21] = system: HSV-1 (KOS); design: species or system mice; settings: mouse, in vivo, sc
[22] = system: Cowpox virus (Brighton); type: cell-based
[23] = system: pox tail lesions; experiment: Pox tail lesion model; type: in vivo
[24] = system: Vaccinia virus; experiment: organism not typed; type: cell-based; settings: for EC50: HEL

Nc1ncn(C[C@@H](CO)OCP(=O)(O)O)c(=O)n1 [Compound 3, (S)-1-[3-hydroxy-2-(Phosphonomethoxy)propyl]-5-azacytosine]
CC50 [1]: 109 µg/mL (≈ 391 µM) | EC50 [2]: 0.54 µg/mL (≈ 1.93 µM) | CC50 [3]: 129 µg/mL (≈ 460 µM) | activity against VZV (Oka, YS, YS-R and 07-1) in HEL cells [4]: significant activity | EC50 ([4]; read-out: EC50 VZV 07/1 strain (HEL cells)): 0.019 µg/mL (≈ 0.0678 µM) | EC50 ([4]; read-out: EC50 VZV OKA strain (HEL cells)): 0.027 µg/mL (≈ 0.0964 µM) | EC50 ([4]; read-out: EC50 VZV YS strain (HEL cells)): 0.039 µg/mL (≈ 0.139 µM) | EC50 ([4]; read-out: EC50 VZV YS-R strain (HEL cells)): 0.015 µg/mL (≈ 0.0535 µM) | activity against Orf virus (NZ2) in PHKs [5]: significant activity | activity against Orf virus (NZ2) in HEL cells [6]: significant activity | EC50 ([6]; Orf virus, HEL, read-out: EC50 Orf virus NZ2): 0.15 µg/mL (≈ 0.535 µM) | activity against Vaccinia virus (Lederle, Lister, W R and Copenhagen) in PHKs [7]: significant activity | EC50 Vaccinia virus (Western Reserve) wild-type [8]: 1.58 µg/mL (≈ 5.64 µM) | EC50 recombinant vaccinia virus 314 + 684 [8]: 10.8 µg/mL | EC50 recombinant vaccinia virus 684 [8]: 6.88 µg/mL | EC50 recombinant vaccinia virus A314T [8]: 4.1 µg/mL | CC50 [9]: > 100 µg/mL | tumor size, SiHa xenografts [10]: did not increase | Toxicity MCC (microscopy), HSB-2 cells [11]: 16 µg/mL | activity against Cowpox virus (Brighton) in HEL cells [12]: significant activity | EC50 ([12]; Cowpox virus, HEL, read-out: EC50 Cowpox virus Brighton): 4.72 µg/mL (≈ 16.8 µM) | EC50 [13]: 0.61 µg/mL (≈ 2.18 µM) | EC50 ([14]; 2 h, read-out: EC50 Vaccinia (Lederle strain), Treatment from 2 h till end of experiment): 2 µg/mL (≈ 7.14 µM) | EC50 ([14]; read-out: EC50 Vaccinia (Lederle strain), Pretreatment (−16 hours)): 1.59 µg/mL (≈ 5.67 µM) | EC50 ([14]; read-out: EC50 Vaccinia (Lederle strain), Treatment 2-4 hours): 5 µg/mL (≈ 17.8 µM) | EC50 ([14]; read-out: EC50 Vaccinia (Lederle strain), Treatment 2-6 hours): 3.98 µg/mL (≈ 14.2 µM) | EC50 ([14]; read-out: EC50 Vaccinia (Lederle strain), Treatment 2-8 hours): 6.3 µg/mL (≈ 22.5 µM) | activity against Herpes simplex virus-2 (G) in E6SM cell cultures [15]: significant activity | growth of tumors, human cervical carcinoma (FIG. 12) [16]: inhibit the growth of tumors | EC50 ([17]; read-out: antiviral activity (EC50) SV40 PML-1 strain EK): 3.19 µg/mL (≈ 11.4 µM) | EC50 ([17]; read-out: antiviral activity (EC50) SV40 PML-2 strain DAR): 3.81 µg/mL (≈ 13.6 µM) | EC50 ([17]; read-out: antiviral activity (EC50) SV40 strain A2895): 3.22 µg/mL (≈ 11.5 µM) | activity against Vaccinia virus in E6SM cell cultures [18]: significant activity | EC50 ([19]; read-out: EC50 MCV 06/02): 0.4 µg/mL (≈ 1.43 µM) | EC50 ([19]; read-out: EC50 MCV 06/03): 0.23 µg/mL (≈ 0.821 µM) | EC50 ([19]; read-out: EC50 MCV 06/04): 0.4 µg/mL (≈ 1.43 µM) | EC50 ([19]; read-out: EC50 MCV 06/06): 1.26 µg/mL (≈ 4.5 µM) | EC50 ([20]; read-out: antiviral activity (EC50) 2PTA2): 3.35 µg/mL (≈ 12 µM) | EC50 ([20]; read-out: antiviral activity (EC50) LID-1): 4.98 µg/mL (≈ 17.8 µM) | EC50 ([20]; read-out: antiviral activity (EC50) MN/RDE Toronto): 1.94 µg/mL (≈ 6.92 µM) | EC50 ([20]; read-out: antiviral activity (EC50) PTA): 3.89 µg/mL (≈ 13.9 µM) | survival rate, HSV-1 (KOS) mice [21]: 100% | activity against Cowpox virus (Brighton) in PHKs [22]: significant activity | number of lesions on day 7 [23]: 0 | activity against Vaccinia virus (Lederle, Lister, W R and Copenhagen) in HEL cells [24]: significant activity | EC50 ([24]; read-out: EC50 Vaccinia Virus Lister): 1.69 µg/mL (≈ 6.03 µM) | EC50 ([24]; Orthopoxvirus vaccinia, read-out: EC50 Vaccinia Virus Copenhagen): 2.26 µg/mL (≈ 8.07 µM) | EC50 ([24]; Orthopoxvirus vaccinia, read-out: EC50 Vaccinia Virus Lederle): 1.7 µg/mL (≈ 6.07 µM) | EC50 ([24]; Orthopoxvirus vaccinia, read-out: EC50 Vaccinia Virus WR): 2.45 µg/mL (≈ 8.74 µM)
